{
  "source": "patent US9243037B2",
  "about": "“Gramicidin a mutants that function as antibiotics with improved solubility and reduced toxicity” (Trustees of Boston College, priority 2011, dated 2016)",
  "key": {"HeLa": {"system": "HeLa", "assay": "MTT toxicity assay", "assay_type": "cell-based, human", "experimental": "(§1) Toxicity of gA-WT and gA-5 was tested against two human cancer cell lines, HeLa and MCF-7 (gifts from Professor Eranthie Weerapana at Boston College) by using the MTT assay as described in the protocol provided by Invitrogen.[5] HeLa cells (in DMEM high glucose media with 10% FBS, 1% Pen/Strep, 37° C., 5% CO2) and MCF-7 cells (in RPMI media with 10% FBS and 1% Pen/Strep, 37° C., 5% CO2) were grown to about 80% confluent before removed from the surface of a 20 cm petri-dish with […] with EDTA (3-5 mins, 37° C., 5% CO2). Cells were pelleted (3,500 rpm, 5 mins at 4° C.), and plated at 15,000 cells per well (100 μL per well), then incubated for 48 hrs before peptide addition.\n(§2) Stock solutions of gA in DMSO with varied concentrations were prepared so that for each peptide concentration the total volume of DMSO addition was kept constant at 1% (v/v). For each peptide concentration, samples were set up as four replicates. Control wells were loaded with 1 μL of DMSO. After overnight incubation, cells were washed once with PBS before being incubated for 4 hrs with 110 μL of 12 mM 3-(4,5-Dimethylthiazol-2-yl)-2,5-diphenyltetrazolium bromide (MTT) dissolved in RPMI media. The MTT assay was quenched with 100 μL of 10% SDS in 0.01 M HCl and allowed to incubate overnight before absorbance at 570 nm was recorded. Wells were averaged and standard deviations determined for each peptide concentration. Data were normalized to the DMSO control to give % cell survival (see FIG. 3)."}, "MCF-7": {"system": "MCF-7", "assay": "MTT toxicity assay", "assay_type": "cell-based, human", "experimental": "as §1, §2"}, "[1]": {"conditions": "Trp absorbance @ 280 nm; 10 mM PBS, pH 7.0, 1% DMSO; values taken from ref; cited from earlier work"}, "[2]": {"assay": "K+ leakage from liposomes", "assay_type": "biochemical", "conditions": "FIG. 4B; in words", "experimental": "A chloroform solution containing 76 mg of POPC (for POPC LUVs) or a chloroform/meol (1/1) containing 38 mg of POPC and 38.5 mg POPG sodium salt (for POPC/POPG LUVs, POPC:POPG=1:1) was dried under reduced pressure to form a thin film, which was then […] with 2 mL aqueous buffer: (1) 10 mM HEPES, 150 mM KCl, pH 7.0 for K+ leakage assay; (2) 10 mM TES, 100 mM sodium citrate, 50 mM TbCl3, pH 7.0 for Tb3+ leakage assay; (3) 10 mM HEPES, 150 mM NaCl, pH 7.0 for peptide binding assay. After 20 cycles of freezing and thawing, the liposome suspension was extruded 21 times through a 100 nm polycarbonate membrane (LIPOSOFAST Mini Extrusion system, Avanti Polar Lipids; Whatman Nuclepore Track-Etch Membrane) at RT. Free K+ or Tb3+ were removed by gel filtration (ÄKTA FPLC with HIPREP™ 16/60 Sephacryl TM-S-500HR column) using Buffer A for (1) and (3) or Buffer B for (2) as the eluents. The lipid concentration was determined by the Stewart assay and the size of liposome was confirmed by Dynamic Light Scattering (DLS, DYNAPRO NANOSTAR, Wyatt, Santa Barbara, Calif.). After gel filtration the polydispersity of all liposome are below 20%.\nThe K+ leakage from liposomes was determined by a potassium ion selective electrode (K-ISE, Cole-Parmer, Vernon Hills, Ill.). […] Three minutes after each peptide addition, the K+ concentration was measured and reported as the K-ISE potential. […]"}},
  "data": [
    {"smiles": "CC(C)C[C@@H](NC(=O)[C@H](C)NC(=O)CNC(=O)[C@@H](NC=O)C(C)C)C(=O)N[C@@H](C)C(=O)N[C@@H](C(=O)N[C@H](C(=O)N[C@@H](C(=O)N[C@@H](Cc1c[nH]c2ccccc12)C(=O)N[C@H](CCCCN)C(=O)N[C@@H](Cc1c[nH]c2ccccc12)C(=O)N[C@H](CCCCN)C(=O)N[C@@H](Cc1c[nH]c2ccccc12)C(=O)N[C@H](CCCCN)C(=O)N[C@@H](Cc1c[nH]c2ccccc12)C(=O)NCCO)C(C)C)C(C)C)C(C)C", "note": "(racemic) [gA-5, formyl-V-G-A-dL-A-dV-V-dV-W-dK-W-dK-W-dK-W-NHCH2CH2OH]", "values": [
      {"measurement": "toxicity, cell survival (MTT)", "setting": "HeLa", "result": "essentially unaffected"},
      {"measurement": "toxicity, cell survival (MTT)", "setting": "MCF-7", "result": "essentially unaffected"},
      {"measurement": "Sat. Conc, Lys series", "setting": "[1]", "result": 72, "unit": "µM"},
      {"measurement": "K+ leakage from negatively charged liposomes", "setting": "[2]", "result": "lack of K+ leakage"}
    ]}
  ]
}
